Key:
HIV-infected MT-2 cells = experiment: HIV-induced syncytia formation in MT-2 cells; format: cell-based, human; settings: 48 hours post infection
Procedure: The panels of FIG. 7 show the relative extent of HIV-induced syncytia formation in MT-2 cells at 48 hours post infection under various conditions. “Control” cells are HIV-infected cells, but are not treated with any test agent. “DMSO” treatment alone is also included as a control. Other treatments include, AZT, PP3 and PP2, all solubilized in DMSO.

WNV RNA = experiment: Quantitative RT-PCR (Taqman) of WNV RNA within infected SKN-MC cells; format: cell-based, West Nile virus; settings: 4 hours post PP2 addition, normalized to β-actin
Procedure: Specifically, cells were prepared as described above in relation to FIG. 8B. Four hours post fresh PP2 addition, RNA was isolated from 200 μl of cell lysate by Trizol reagent (Invitrogen), and 1 μg total RNA was used in a quantitative RT-PCR reaction (Taqman) using WNV-specific primer and probe set and standards. An additional RT-PCR was performed using β-actin-specific primers and probe, for an internal control. WNV RNA quantities were normalized to the β-actin values.

HIV-1 89.6 [1] = experiment: HIV replication assay (HIV-1 p24 antigen ELISA) in HIV-infected THP-1 and MT-2 cells; format: cell-based; settings: for Extent of PMO-induced Inhibition of HIV replication: HIV-1 89.6, measured by gag p24 production, gene-specific PMO antisense
From the text: Introduction of antisense PMO into HIV-infected THP-1 or MT-2 cells. Antisense PMO molecules, for delivery purposes, are typically converted to a paired duplex together with a partially complementary cDNA oligonucleotide in the weakly basic delivery reagent ethoxylated polyethylenimine (EPEI) (Summerton, supra). The anionic complex binds to the cell surface, is taken up by endocytosis and eventually released into the cytosol. A protocol for optimum uptake of antisense PMO in THP-1 and MT-2 cells was developed using a modification of the EPEI method. PMO-AS were obtained from GeneTools (Genetools, LLC, One Summerton Way, Philomath, Oreg. 97370).
Briefly, loading into target cells was accomplished by complexing the PMO with a proprietary loading reagent, Ethoxylated Polyethylenimine (EPEI). Target cells (MT-2 or THP-1) were introduced into snap cap conical tubes (5×10^5 cells/tube) in 900 μl serum free RPMI and the EPEI-PMO complex was added for 4 hours at 37° C. in a 7% CO2 atmosphere. The PMO-EPEI complex was prepared by diluting 5 μl PMO in 40 μl sterile RNase-free water, adding 5 μl EPEI, vortexing and incubating the sample for 20 minutes at room temperature. The sample was then mixed with 50 μl serum-free RPMI and added to the target cells to yield a final volume of 1 ml. At the end of the loading period, cells were gently pelleted and the PMO solution was removed by aspiration. After a further wash, cells were incubated in complete RPMI for 12 hrs prior to HIV infection to allow for recovery and initiation of PMO action.
HIV-1 Infection. PMO-treated THP-1 or MT-2 cells were infected with 50 μl of concentrated HIV-1 89.6 diluted to 1 ml in serum-free RPMI. The following control cultures were identically infected: (i) to control for any non-specific effect of the loading protocol, cells exposed to EPEI alone during the loading procedure; (ii) as a positive control for normal HIV infection, cells that were not exposed to either EPEI or EPEI-PMO; (iii) as a control for HIV inhibition, cells infected with HIV in the presence of 2 μM AZT and maintained in AZT throughout.
Cells were exposed to HIV for 4 hours. The inoculum was removed by 3 cycles of pelleting and rinsing. The cells were resuspended in 1.5 ml of complete RPMI and 0.5 ml immediately removed at Time 0 to leave a final volume of 1 ml. The Time 0 sample served as a measure of residual virus. At each harvest time (T1 through T4), 0.5 ml of supernatant was removed and replaced with an equal volume of complete RPMI. Samples were stored at −80° C. until evaluation using a p24 ELISA assay (described below). Each experimental variable and control was performed in duplicate. T1 through T4 typically corresponded to 16, 24, 40 and 48 hrs PI, respectively.
Validation of KSHV-induced gene sequences; HIV-1 p24 antigen ELISA. To monitor the effect of PMO-targeting of cellular proteins on HIV replication, supernatants harvested from PMO-treated and control THP and MT-2 cells were assayed using an HIV p24 antigen ELISA. The rationale behind this assay is described in the following paragraph.
The HIV-1 gag protein p24 is the major internal structural component of the virion core. The Coulter p24 assay is an enzyme-liked immunosorbent assay (ELISA) performed using a commercially available kit (Beckman Coulter). It was developed specifically for the detection and quantitation of HIV-1 p24 in plasma or serum, for clinical purposes, or in tissue culture supernatants, to monitor virus replication. Each kit contains a 96-well microtiter tray pre-coated with a monoclonal antibody to p24. A specimen of plasma, serum or tissue culture supernatant is added to each well along with a viral lysis buffer and incubated to allow any p24 antigen present to bind to the coated well. Following a wash, biotinylated human anti-HIV IgG is added and incubated to allow complexing to any bound p24. Following another wash, strepatavidin-HRP is added to complex with any bound biotinylated complexes. […]

HIV-1 89.6 [2] = experiment: as above; format: cell-based; settings: MT-2 cells infected with HIV 89.6; continued presence of 10 μM
WNV E protein = experiment: Endo H / PNGase F sensitivity of WNV E protein in infected Vero cells (western blot); format: cell-based, West Nile virus; settings: WNV multiplicity 3, PP2 added 1 hpi, 24 hpi, consistent at 48 h
Procedure: Inhibition of src-family kinases (SFKs) may result in mis-localization or aberrant trafficking of WNV proteins, thereby interfering with formation of infectious particles. To test this hypothesis, lysates from WNV-infected cells (with or without PP2) were treated with Endoglycosidase H (Endo H) or Peptide N-glycosidase F (PNGase F).
Endo H removes immature high-mannose glycans from proteins. High-mannose structures are added to proteins in the endoplasmic reticulum (ER). Such structures are trimmed and further modified in the Golgi, conferring resistance to endo H. Sensitivity to endo H is therefore indicative of proteins that have not advanced beyond the endoplasmic reticulum in the secretory pathway (Maley, et al., Anal. Biochem. 180:195, 1989.
PNGase F will remove all glycan moieties regardless of modification.
Methods. Vero cells were infected with WNV (multiplicity=3) and treated with PP2 (or DMSO as a control) 1 h post-infection (hpi). At 24 or 48 hpi, cells were lysed in buffer containing 1% NP-40. Lysates were denatured and treated with endo H or PNGase F for 1 h. Samples were resolved by SDS-PAGE, and WNV E was detected by western blotting.

WNV = experiment: Infectious WNV within infected SKN-MC cell lysates (plaque assay on Vero cells); format: cell-based, West Nile virus
Procedure: Additionally, infectious virus within infected cell lysates was decreased almost 10^6-fold four hours post-addition of PP2 (FIG. 8B, gray bars; and FIG. 15, left panel). […] Specifically, SKN-MC cells were infected with WNV as above. At 2 hpi, cells were treated with PP2 at the indicated final concentrations. At 20 hpi, cells were re-fed with media containing fresh PP2 at the same concentration. Cells were washed 3-times with phosphate buffered saline (PBS), resuspended in 250 μl PBS, and then lysed by 3 successive freeze/thaws. Lysates were centrifuged at 13,000×g for 5 minutes, followed by collection of the supernatant. Infectious virus in soluble lysate was measured by plaque assay on Vero cells. Samples were collected 4-hours post-addition of fresh PP2 (gray bars) and 24 hours post addition of fresh PP2 (black bars). 24-hours post-addition of PP2, virus within the infected cell was approximately 500-fold lower, indicating some recovery from the effect of the drug (FIG. 8B, black bars).

WNV (NY1999) = experiment: Infectious WNV in culture supernatant of SKN-MC cells (plaque assay on Vero cells); format: cell-based, West Nile virus; settings: multiplicity of infection 5, 20 μM, 22 hours post-infection (20 h post-PP2 addition)
From the text: SKN-MC neutoblastoma cells were infected with WNV at a multiplicity of 5.

[3] = tested on: mitochondrial respiration in viable cells; experiment: XTT respiration assay to assess compound toxicity; format: cell-based; settings: at the concentrations used (20/40 μM Doxepin, 50/100 μM Pyrilamine, 50/100 μM Acyclovir, 20 μM PP2, 20 μM PP3)
From the text: The agents tested are cross-referenced to the respective bar graphs as shown in insert of the right panel. […] Briefly, the XTT assay is based on the cleavage of XTT (sodium 3-[1-(phenylamino-carbonyl)-3,4-tetrazolium]-bis (4-methoxy-6-nitro) benzene sulfonic acid hydrate) to form formazan by mitochondrial respiration in viable cells (see, e.g., Marshall et al., Growth Regul. 5:69-84, 1995).

c-yes mRNA = experiment: Quantitative RT-PCR of c-yes mRNA in siRNA-transfected Huh7 cells; format: cell-based, human; settings: 2 μl of 20 μM siRNA per 300,000 cells, harvested 24 hpi
Procedure: Huh7 cells were transfected with either of c-yes-specific siRNAs 214 or 316, or a control siRNA directed against Lamins A and C. Transfection of 300,000 cells was carried out with 2 μl of a 20 μM siRNA (Dharmacon) and 1 μl Oligofectamine (Invitrogen) according to the manufacturer's protocol. Cells were […] 24 hours post-transfection, and cells and supernatant harvested at 24 hpi. 1 μg total cellular RNA was used for quantitative RT-PCR with c-yes-specific primers.

[4] = PMO-treated HIV-infected MT-2 cells
[5] = PMO-treated HIV-infected THP-1 cells

Molecule: Cc1cn([C@H]2C[C@H](N=[N+]=[N-])[C@@H](CO)O2)c(=O)[nH]c1=O [AZT]
- HIV-induced syncytia formation (HIV-infected MT-2 cells): substantially reduced syncytia formation

Molecule: CC(C)(C)n1nc(-c2ccc(Cl)cc2)c2c(N)ncnc21 [PP2, 4-Amino-5-(4-chlorophenyl)-7-(t-butyl)pyrazolo[3,4-d]pyrimidine]
- viral RNA within infected cells, treated vs untreated (WNV RNA): no significant difference
- HIV-induced syncytia formation (HIV-infected MT-2 cells): substantially reduced syncytia formation
- anti-HIV activity (p24 production) (HIV-1 89.6 [1]; HIV-infected cells, 20 μM): substantial inhibition of HIV
- HIV p24 production (HIV-1 89.6 [2]): substantial decrease
- proportion of endo H-resistant population of WNV E protein (WNV E protein): dramatically decreased
- virus within the infected cell, lower than untreated (WNV; 24 hours post-addition of fresh PP2): approximately 500 fold
- decrease of infectious virus within infected cell lysates (WNV; four hours post-addition of fresh PP2): ~10^6 fold
- decrease of infectious WNV in the supernatant (WNV (NY1999)): 30 fold

Molecule: CN(C)CCC=C1c2ccccc2COc2ccccc21 [doxepin]
- compound toxicity (XTT respiration assay) [3]: Except for the higher concentration of doxepin, the compounds were not toxic

Molecule: ARF1 (antisense ATGCTTGTGGACAGGTGGAAGGACA; all phosphorodiamidate morpholino (PMO))
- Extent of PMO-induced Inhibition of HIV replication (HIV-1 89.6 [1]): (negative)
- inhibition of HIV replication (HIV p24 gag production) (HIV-1 89.6 [1]; [4]): little or no affect on HIV replication

Molecule: HMG20B (antisense CGCCCAGCATCTTGGTGATCTCGGG; all phosphorodiamidate morpholino (PMO))
- Extent of PMO-induced Inhibition of HIV replication (HIV-1 89.6 [1]): positive
- inhibition of HIV replication (HIV p24 gag production) (HIV-1 89.6 [1]; [4]): particularly effective at reproducibly inhibiting HIV replication
- inhibition of HIV replication (HIV p24 gag production) (HIV-1 89.6 [1]; [5]): particularly effective at reproducibly inhibiting HIV replication

Molecule: HRH1 (antisense GCGAAAGAGCAGCCGCCAGTTATGG; all phosphorodiamidate morpholino (PMO))
- Extent of PMO-induced Inhibition of HIV replication (HIV-1 89.6 [1]): positive
- inhibition of HIV replication (HIV p24 gag production) (HIV-1 89.6 [1]; [4]): particularly effective at reproducibly inhibiting HIV replication
- inhibition of HIV replication (HIV p24 gag production) (HIV-1 89.6 [1]; [5]): particularly effective at reproducibly inhibiting HIV replication

Molecule: YES (antisense TTTCTTTACTTTTAATGCAGCCCAT; all phosphorodiamidate morpholino (PMO))
- Extent of PMO-induced Inhibition of HIV replication (HIV-1 89.6 [1]): positive
- inhibition of HIV replication (HIV p24 gag production) (HIV-1 89.6 [1]; [4]): particularly effective at reproducibly inhibiting HIV replication
- inhibition of HIV replication (HIV p24 gag production) (HIV-1 89.6 [1]; [5]): particularly effective at reproducibly inhibiting HIV replication

Molecule: c-yes-specific siRNA 214 (guide AACGCCUUUUGGAGGUGCAUC; chemistry not given here; listed as Homo sapiens)
- c-yes mRNA (c-yes mRNA): reduction of c-yes mRNA
